Assay results from patent publication US8513303B2, “Antimicrobial agent” (De Montfort University, priority 2007, dated 2013).

Columns and labels:
[1] = test system: Escherichia coli ATCC 10536; test: Quantitative suspension test, log10 reduction in bacterial numbers; type: cell-based; conditions: 0.2% w/v H2O2
From the text: (§1) Neutralisation (nullification of activity) of antimicrobial agents is required to prevent inhibitory concentrations from being transferred to the recovery medium (as discussed, for example, in Russell A. D. (2004) Factors influencing the efficacy of antimicrobial agents in Principles and Practice of Disinfection Preservation and Sterilization, 4th edition, eds Fraise A. P., Lambert P. A. and Maillard J. Y., pages 98-127, Oxford: Blackwell Publishing Ltd. and Russell A. D., Ahonkhai I. and Rogers, D. T. (1979) A review: microbiological applications of the inactivation of antibiotics and other antimicrobial agents. Journal of Applied Bacteriology, 46, 207-245). Thus, samples were removed at desired time points and then any hydrogen peroxide present in the sample was neutralised (i.e. deactivated) using catalase.
(§2) In the examples, catalase from bovine liver was used to neutralise the activity of any remaining hydrogen peroxide (as described in Russell A. D., Ahonkhai I. and Rogers, D. T. (1979), A review: microbiological applications of the inactivation of antibiotics and other antimicrobial agents, Journal of Applied Bacteriology, 46, 207-245) after the appropriate contact time during the experiments. Control experiments were conducted to establish whether the neutraliser nullified the activity of hydrogen peroxide and whether the neutraliser was toxic to the micro-organisms tested.
(§3) The effect of acidic pH conditions (pH 3.47 to 3.54) were investigated with and without hydrogen peroxide and air.
(§4) A quantitative suspension test (as described in Reybrouck G. (1998), The testing of disinfectants, International Biodeterioration and Biodegradation, 41, 269-272) based on the general principles of European quantitative suspension tests (BS EN1040:2005: Chemical disinfectants and antiseptics, Quantitative suspension test for the evaluation of basic bactericidal activity of chemical disinfectants and antiseptics, Test method and requirements (phase 1), London: British Standards Institute; BS EN 1276:1997: Chemical disinfectants and antiseptics, Quantitative suspension test for the evaluation of bactericidal activity of chemical disinfectants and antiseptics used in food, industrial, domestic, and institutional areas, Test method and requirements (phase 2, step 1). London: British Standards Institute) was used to establish the basic level of activity of the catalyst in the absence of organic matter. All tests were performed independently at least three times unless otherwise stated. Low concentrations (0.2-1% w/v) of hydrogen peroxide were used so that increases in antimicrobial activity could be detected if present.
(§5) Bacteria were inoculated into 10 ml volumes of nutrient broth and incubated at 37° C. for 18 to 24 hours at a shaking speed of 100 revolutions/minute. After incubation, the bacteria were washed by centrifugation to remove the nutrient broth; supernatants were discarded and the bacterial pellets were resuspended in sterilised distilled water. 7.5 ml of the washed bacterial suspension was added to 67.5 ml of hydrogen peroxide and/or distilled water to give a specific final concentration (ranging from 0 to 1% w/v—see Tables below) of hydrogen peroxide and approximately 8 log10 colony forming units (CFU)/mL of bacteria. The resultant mixture was stirred magnetically throughout the experiment. Where applicable, 1 g (+/−0.1 g) of either modified PAN fibre (referred to as PAN1 (control) or PAN2 (control)) or catalyst (referred to as PAN1 catalyst or PAN2 catalyst or PAN3 catalyst) comprising PAN fibres was added to the resultant mixture. The experiments were performed with or without air. If air was used, 2.5 L/min was supplied via. a filtered air pump and a sterilised Pyrex gas distribution tube.
(§6) After a specific contact time (see Tables below), 1 ml aliquots were removed from the experimental flask and transferred into 9 ml of neutraliser (catalase) for 5 minutes to inactivate any remaining hydrogen peroxide.

[2] = test system: Pseudomonas aeruginosa ATCC 15442; test: as above; type: cell-based; conditions: 0.5% w/v H2O2; for log reduction: 35° C.
From the text: as §1, §2, §3, §4, §5, §6

[3] = air 2.5 L/min, 50 min, listed as hydrogen peroxide
[4] = no air, 60 min, listed as hydrogen peroxide
[5] = acidic pH 3.47 to 3.54, air 2.5 L/min, 10 min
[6] = acidic pH 3.47 to 3.54, air 2.5 L/min, 20 min
[7] = acidic pH 3.47 to 3.54, air 2.5 L/min, 30 min
[8] = acidic pH 3.47 to 3.54, air 2.5 L/min, 40 min
[9] = acidic pH 3.47 to 3.54, air 2.5 L/min, 50 min
[10] = acidic pH 3.47 to 3.54, air 2.5 L/min, 60 min
[11] = acidic pH 3.47 to 3.54, no air, 10 min
[12] = acidic pH 3.47 to 3.54, no air, 20 min
[13] = acidic pH 3.47 to 3.54, no air, 30 min
[14] = acidic pH 3.47 to 3.54, no air, 40 min
[15] = acidic pH 3.47 to 3.54, no air, 50 min
[16] = acidic pH 3.47 to 3.54, no air, 60 min

OO [Example H2O2, hydrogen peroxide]
Mean log10 reduction in CFU/ml ([1]; air 2.5 L/min, 10 min): 1.33 (0.27) log10 CFU/ml
Mean log10 reduction in CFU/ml ([1]; air 2.5 L/min, 20 min): 2.68 (0.22) log10 CFU/ml
Mean log10 reduction in CFU/ml ([1]; air 2.5 L/min, 30 min): 3.98 (0.28) log10 CFU/ml
Mean log10 reduction in CFU/ml ([1]; air 2.5 L/min, 40 min): 4.79 (0.43) log10 CFU/ml
Mean log10 reduction in CFU/ml ([1]; air 2.5 L/min, 50 min): >5.58 (0) log10 CFU/ml
Mean log10 reduction in CFU/ml [1, 3]: greater than 5 log10 CFU/ml
Mean log10 reduction in CFU/ml ([1]; air 2.5 L/min, 60 min): >5.58 (0) log10 CFU/ml
Mean log10 reduction in CFU/ml ([1]; no air, 10 min): 1.01 (0.36) log10 CFU/ml
Mean log10 reduction in CFU/ml ([1]; no air, 20 min): 2.20 (0.42) log10 CFU/ml
Mean log10 reduction in CFU/ml ([1]; no air, 30 min): 2.67 (0.52) log10 CFU/ml
Mean log10 reduction in CFU/ml ([1]; no air, 40 min): 3.52 (0.57) log10 CFU/ml
Mean log10 reduction in CFU/ml ([1]; no air, 50 min): 4.21 (0.19) log10 CFU/ml
Mean log10 reduction in CFU/ml ([1]; no air, 60 min): 4.76 (0.39) log10 CFU/ml
Mean log10 reduction in CFU/ml [1, 4]: 4.76 log10 CFU/ml
Mean log10 reduction in CFU/ml [1, 5]: 2.16 log10 CFU/ml
Mean log10 reduction in CFU/ml [1, 6]: 3.35 log10 CFU/ml
Mean log10 reduction in CFU/ml [1, 7]: 4.46 log10 CFU/ml
Mean log10 reduction in CFU/ml [1, 8]: ≧5.46 log10 CFU/ml
Mean log10 reduction in CFU/ml ([1]; acidic pH 3.47 to 3.54, air 2.5 L/min, 40 min, listed as hydrogen peroxide): greater than 5 log10 CFU/ml
Mean log10 reduction in CFU/ml [1, 9]: >5.46 log10 CFU/ml
Mean log10 reduction in CFU/ml [1, 10]: >5.46 log10 CFU/ml
Mean log10 reduction in CFU/ml [1, 11]: 2.43 log10 CFU/ml
Mean log10 reduction in CFU/ml [1, 12]: 3.40 log10 CFU/ml
Mean log10 reduction in CFU/ml [1, 13]: 4.21 log10 CFU/ml
Mean log10 reduction in CFU/ml [1, 14]: ≧5.11 log10 CFU/ml
Mean log10 reduction in CFU/ml ([1]; acidic pH 3.47 to 3.54, no air, 40 min, listed as hydrogen peroxide): greater than 5 log10 CFU/ml
Mean log10 reduction in CFU/ml [1, 15]: ≧5.30 log10 CFU/ml
Mean log10 reduction in CFU/ml [1, 16]: >5.46 log10 CFU/ml
Mean log10 reduction in CFU/ml ([2]; air 2.5 L/min, 10 min): 0.36 (0.13) log10 CFU/ml
Mean log10 reduction in CFU/ml ([2]; air 2.5 L/min, 20 min): 0.53 (0.10) log10 CFU/ml
Mean log10 reduction in CFU/ml ([2]; air 2.5 L/min, 30 min): 0.55 (0.18) log10 CFU/ml
Mean log10 reduction in CFU/ml ([2]; air 2.5 L/min, 40 min): 0.59 (0) log10 CFU/ml
Mean log10 reduction in CFU/ml ([2]; air 2.5 L/min, 50 min): 0.72 (0.07) log10 CFU/ml
Mean log10 reduction in CFU/ml [2, 3]: 0.72 log10 CFU/ml
Mean log10 reduction in CFU/ml ([2]; air 2.5 L/min, 60 min): 0.50 (0.09) log10 CFU/ml
Mean log10 reduction in CFU/ml ([2]; air 2.5 L/min, 60 min, listed as hydrogen peroxide): 0.5 log10 CFU/ml
Mean log10 reduction in CFU/ml ([2]; no air, 10 min): 0.52 (0.12) log10 CFU/ml
Mean log10 reduction in CFU/ml ([2]; no air, 20 min): 0.81 (0.24) log10 CFU/ml
Mean log10 reduction in CFU/ml ([2]; no air, 30 min): 0.88 (0.25) log10 CFU/ml
Mean log10 reduction in CFU/ml ([2]; no air, 40 min): 0.86 (0.32) log10 CFU/ml
Mean log10 reduction in CFU/ml ([2]; no air, 50 min): 0.87 (0.28) log10 CFU/ml
Mean log10 reduction in CFU/ml ([2]; no air, 60 min): 0.97 (0.22) log10 CFU/ml
Mean log10 reduction in CFU/ml [2, 4]: 0.97 log10 CFU/ml
log reduction ([2]; not buffered, air, 10 min): 1.80 log
log reduction ([2]; not buffered, air, 20 min): 2.42 log
log reduction ([2]; not buffered, air, 60 min): 3.61 log
log reduction ([2]; not buffered, no air, 10 min): 2.51 log
log reduction ([2]; not buffered, no air, 40 min): 4.15 log
log reduction ([2]; not buffered, no air, 60 min): 4.45 log
Mean log10 reduction in CFU/ml [2, 5]: 2.53 log10 CFU/ml
Mean log10 reduction in CFU/ml [2, 6]: 3.41 log10 CFU/ml
Mean log10 reduction in CFU/ml [2, 7]: 4.25 log10 CFU/ml
Mean log10 reduction in CFU/ml [2, 8]: ≧4.81 log10 CFU/ml
Mean log10 reduction in CFU/ml [2, 9]: ≧5.34 log10 CFU/ml
Mean log10 reduction in CFU/ml ([2]; acidic pH 3.47 to 3.54, air 2.5 L/min, 50 min, listed as hydrogen peroxide): greater than 5 log10 CFU/ml
Mean log10 reduction in CFU/ml [2, 10]: ≧5.34 log10 CFU/ml
Mean log10 reduction in CFU/ml [2, 11]: 2.30 log10 CFU/ml
Mean log10 reduction in CFU/ml [2, 12]: 2.76 log10 CFU/ml
Mean log10 reduction in CFU/ml [2, 13]: 3.71 log10 CFU/ml
Mean log10 reduction in CFU/ml [2, 14]: 3.88 log10 CFU/ml
Mean log10 reduction in CFU/ml [2, 15]: 4.52 log10 CFU/ml
Mean log10 reduction in CFU/ml [2, 16]: 4.83 log10 CFU/ml
Mean log10 reduction in CFU/ml ([2]; room temperature, not buffered, air 2.5 L/min, 10 min): 0.49 log10 CFU/ml
Mean log10 reduction in CFU/ml ([2]; room temperature, not buffered, air 2.5 L/min, 20 min): 0.70 log10 CFU/ml
Mean log10 reduction in CFU/ml ([2]; room temperature, not buffered, air 2.5 L/min, 30 min): 0.70 log10 CFU/ml
Mean log10 reduction in CFU/ml ([2]; room temperature, not buffered, air 2.5 L/min, 40 min): 0.80 log10 CFU/ml
Mean log10 reduction in CFU/ml ([2]; room temperature, not buffered, air 2.5 L/min, 50 min): 0.81 log10 CFU/ml
Mean log10 reduction in CFU/ml ([2]; room temperature, not buffered, air 2.5 L/min, 60 min): 0.63 log10 CFU/ml
Mean log10 reduction in CFU/ml ([2]; room temperature, not buffered, no air, 10 min): 0.58 log10 CFU/ml
Mean log10 reduction in CFU/ml ([2]; room temperature, not buffered, no air, 20 min): 1.00 log10 CFU/ml
Mean log10 reduction in CFU/ml ([2]; room temperature, not buffered, no air, 30 min): 1.00 log10 CFU/ml
Mean log10 reduction in CFU/ml ([2]; room temperature, not buffered, no air, 40 min): 1.00 log10 CFU/ml
Mean log10 reduction in CFU/ml ([2]; room temperature, not buffered, no air, 50 min): 1.02 log10 CFU/ml
Mean log10 reduction in CFU/ml ([2]; room temperature, not buffered, no air, 60 min): 1.12 log10 CFU/ml
